Experimental data taken from patent US20150368248A1, “2-SUBSTITUTED-6-BIARYLMETHYLAMINO-9-CYCLOPENTYL-9H-PURINE DERIVATIVES, USE THEREOF AS MEDICAMENTS, AND PHARMACEUTICAL COMPOSITIONS” (UNIVERZITA PALACKEHO V OLOMOUCI, priority 2013, published 2015).
Where two headings read alike, the source gives them in different places.

Experiments:
CDK1/cyclin B = molecular target: T1, CDK1/cyclin B (Homo sapiens, UniProt P06493); test: Kinase inhibition assay, recombinant kinase, [γ-33P]ATP; assay type: biochemical
T1 construct: made in house; host or cells: Sf9 insect cells (baculovirus)
Protocol: CDK2/Cyclin E kinase was produced in Sf9 insect cells via baculoviral infection and purified on a NiNTA column (Qiagen). CDK5/p35, CDK7Cyclin H/MAT1 and CDK9/Cyclin T1 was purchased from ProQinase GmbH. […] The reactions were stopped by adding 5 μL of 3% aq H3PO4. Aliquots were spotted onto P-81 phosphocellulose (Whatman), washed 3× with 0.5% aq H3PO4 and finally air-dried.
CDK1/cyclin B and CDK2/cyclin E kinases were produced in Sf9 insect cells via baculoviral infection, while CDK5/p35, CDK7/cyclin H/MAT1, and CDK9/cyclin T1 were purchased from ProQinase (Freiburg, Germany) and assayed as described previously (35). The kinase reactions were assayed with 1 mg/ml histone H1 (for CDK2 and CDK5) or (YSPTSPS)2KK peptide (for CDK7 and CDK9) in the presence of 15/0.15/1.5/1.5 […] ATP (for CDK2/CDK5/CDK7CDK9), […] [γ-^33P]ATP and of the test compound in a final volume of […]. The reaction buffer contained 60 mM HEPES-NaOH, pH 7.5, 3 mM MgCl2, 3 mM MnCl2, 3 mM Na-orthovanadate, 1.2 mM DTT, 2.5 mg/50 ml PEG20.000. The reactions were stopped by adding […] of 3% H3PO4. Aliquots were spotted onto P-81 phosphocellulose (Whatman, GE Healthcare Biosciences, Pittsburgh, USA), washed 3 times with 0.5% H3PO4 and finally air-dried. Kinase inhibition was quantified using a FLA-7000 digital image analyzer (Fujifilm, Tokyo, Japan).

[1] = system: caspase-3/7 activity in Hep3B cell line; test: One-step cellular caspase-3/7 activity assay; assay type: cell-based, human; conditions: 24 hours, 0 nM = 1.00
Protocol: (§1) Measurements of proapoptotic properties of new compounds were based on quantification of enzymatic activities of caspases, concretely caspases-3/7. Activity of cellular caspase-3/7 was measured according to Carrasco et al., 2003, BioTechniques, 34(5): 1064-67. Briefly, Hep3B and PLC/PRF/5 cells were incubated in the densities of 10000 cells/well in a 96-well plate overnight. Next day, the compounds in appropriate concentrations were added and cells were incubated for the 24 hours. After incubation, 3× caspase-3/7 assay buffer (150 mM HEPES pH 7.4, 450 mM NaCl, 150 mM KCl, 30 mM MgCl2, 1.2 mM EGTA, 1.5% Nonidet P40, 0.3% CHAPS, 30% sucrose, 30 mM DTT, 3 mM PMSF) with 150 μM Ac-DEVD-AMC as a substrate (Sigma-Aldrich) was added to the wells and plates were incubated at […]. The caspase-3/7 activity was measured after 6 hours using Fluoroskan Ascent microplate reader (Labsystems) at 346 nm/442 nm (excitation/emission).

[2] = system: caspase-3/7 activity in PLC/PRF/5 cell line; test: One-step cellular caspase-3/7 activity assay; assay type: cell-based, human; conditions: 24 hours incubation, relative to 0 nM = 1.00
Protocol: as §1

Hep3B = test: MTT cytotoxicity assay (Example 30); assay type: cell-based, human; conditions: Homo sapiens, Hep3B, 72 h; MTT, three days after drug addition; read-out: Inhibitory concentration IC50, Hep3B
Protocol: (§2) Cytotoxicity of the compounds is the major property determining their anticancer effect in vivo. One of the parameters used, as the basis for cytotoxicity assays, is the metabolic activity of viable cells.
(§3) We have been using the following cell lines: HUH-7 and PLC/PRF/5 cell lines were maintained in DMEM supplemented with 10% fetal bovine serum, penicillin (100 U/ml) and streptomycin (100 μg/ml). […] HepG2 cell line was maintained in EMEM supplemented with 10% fetal bovine serum, sodium pyruvate (0.11 g/1), penicillin (100 U/ml) and streptomycin (100 μg/ml). All cell lines were cultivated at 37° C. in 5% CO2. For cytotoxicity assays, 3000 cells (10000 cells in case of HepG2 cell line) were seeded into each well of 96 well plate and the next day tested compounds were added at various concentrations in triplicates. Three days after drug addition MTT stock solution (5 mg/ml) was added into each well and incubated for 4 h. After this incubation period, produced formazan was dissolved by DMSO and final absorbance was measured at 570 nm with Synergy H4 Hybrid Multi-Mode Microplate Reader.

PLC/PRF/5 = test: MTT cytotoxicity assay (Example 30); assay type: cell-based; conditions: Homo sapiens, PLC-PRF-5, 72 h; MTT, three days after drug addition; read-out: Inhibitory concentration IC50, PLC/PRF/5
Protocol: as §2, §3

HUH-7 = test: MTT cytotoxicity assay (Example 30); assay type: cell-based; conditions: Homo sapiens, Huh-7, 72 h; MTT, three days after drug addition; read-out: Inhibitory concentration IC50, HUH-7
Protocol: as §2, §3

HCC-1.1 (3sp) = test: MTT cytotoxicity assay (Example 30); assay type: cell-based; conditions: Homo sapiens, 72 h; MTT, three days after drug addition; read-out: Inhibitory concentration IC50, 3sp
Protocol: as §2, §3

HCC-1.2 (3p) = test: MTT cytotoxicity assay (Example 30); assay type: cell-based; conditions: Homo sapiens, HCC-1.2, 72 h; MTT, three days after drug addition; read-out: Inhibitory concentration IC50, 3p
Protocol: as §2, §3

[3] = read-out: Kinase inhibition IC50, CDK1

T1 sequence (P06493 whole entry, species assumed): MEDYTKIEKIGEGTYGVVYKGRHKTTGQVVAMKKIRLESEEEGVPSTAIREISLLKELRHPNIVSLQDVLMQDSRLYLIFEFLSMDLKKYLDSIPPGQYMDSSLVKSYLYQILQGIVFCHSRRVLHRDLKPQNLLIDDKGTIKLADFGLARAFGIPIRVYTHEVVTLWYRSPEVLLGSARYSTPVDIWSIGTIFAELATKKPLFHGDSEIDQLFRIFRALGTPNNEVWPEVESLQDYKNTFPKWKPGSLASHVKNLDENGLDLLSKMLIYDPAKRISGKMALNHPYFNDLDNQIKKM
T1 sequence (P14635 whole entry partner, species assumed): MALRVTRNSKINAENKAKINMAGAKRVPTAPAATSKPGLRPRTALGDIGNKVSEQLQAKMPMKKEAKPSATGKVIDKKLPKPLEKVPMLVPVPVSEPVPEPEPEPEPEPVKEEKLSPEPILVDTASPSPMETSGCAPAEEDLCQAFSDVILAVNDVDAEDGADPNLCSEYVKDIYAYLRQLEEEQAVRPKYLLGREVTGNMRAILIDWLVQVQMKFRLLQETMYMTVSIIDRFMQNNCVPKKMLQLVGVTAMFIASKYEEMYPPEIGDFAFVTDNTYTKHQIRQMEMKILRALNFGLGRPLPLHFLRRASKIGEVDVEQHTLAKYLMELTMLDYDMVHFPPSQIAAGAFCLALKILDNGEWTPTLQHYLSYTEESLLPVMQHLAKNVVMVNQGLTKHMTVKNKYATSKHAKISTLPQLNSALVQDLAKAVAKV

Structure (SMILES)	IC50 (CDK1/cyclin B; [3])	Relative caspase-3/7 activity in Hep3B cell line ([1]; 200 nM)	Relative caspase-3/7 activity in Hep3B cell line ([1]; 400 nM)	Relative caspase-3/7 activity in Hep3B cell line ([1]; 800 nM)	Relative caspase-3/7 activity in Hep3B cell line ([1]; 1600 nM)	Relative caspase-3/7 activity in PLC/PRF/5 cell line ([2]; compound concentration 40 nM)	Relative caspase-3/7 activity in PLC/PRF/5 cell line ([2]; compound concentration 80 nM)	Relative caspase-3/7 activity in PLC/PRF/5 cell line ([2]; compound concentration 160 nM)	Relative caspase-3/7 activity in PLC/PRF/5 cell line ([2]; compound concentration 320 nM)	Relative caspase-3/7 activity in PLC/PRF/5 cell line ([2]; compound concentration 640 nM)	Relative caspase-3/7 activity in PLC/PRF/5 cell line ([2]; compound concentration 1280 nM)	IC50 (Hep3B)	IC50 (PLC/PRF/5)	IC50 (HUH-7)	IC50 (HCC-1.1 (3sp))	IC50 (HCC-1.2 (3p))	melting point	IC50 (CDK1/cyclin B; Table 12, read-out: IC50, CDK1/cyklin B)	Relative caspase-3/7 activity in Hep3B cell line ([1]; 100 nM)
NC1CCC(Nc2nc(NCc3ccc(-c4cccs4)cc3)c3ncn(C4CCCC4)c3n2)CC1 (centres unmarked) [BP2, N^2-(4-amino-cyclohexyl)-9-cyclopentyl-N^6-(4-thiophen-2-yl-benzyl)-9H-purine-2,6-diamine]	119 nM	1.09	1.40	3.73	7.77	1.09	1.14	1.30	2.24	>5.00	>5.00	460 nM	105 nM	319 nM	466 nM	317 nM	225 to 226 °C		
NC1CCC(Nc2nc(NCc3ccc(-c4ccco4)cc3)c3ncn(C4CCCC4)c3n2)CC1 (centres unmarked) [BP4, N^2-(4-amino-cyclohexyl)-9-cyclopentyl-N^6-(4-furan-2-yl-benzyl)-9H-purine-2,6-diamine]	148 nM	1.12	1.44	5.58	9.25			0.67	0.61	0.33	0.55	708 nM	106 nM	355 nM	813 nM	802 nM	157 to 159 °C		
NC1CCC(Nc2nc(NCc3ccc(-c4ccsc4)cc3)c3ncn(C4CCCC4)c3n2)CC1 (centres unmarked) [BP5, N^2-(4-amino-cyclohexyl)-9-cyclopentyl-N^6-(4-thiophen-3-yl-benzyl)-9H-purine-2,6-diamine]	183 nM	1.09	1.48	6.65	8.96	0.65	1.07	2.22	3.37	>5.00	>5.00	405 nM	60 nM	231 nM	454 nM	420 nM	114 to 118 °C		
NC1CCC(Nc2nc(NCc3ccc(-c4cccc(F)c4)cc3)c3ncn(C4CCCC4)c3n2)CC1 (centres unmarked) [BP12, N^2-(4-amino-cyclohexyl)-9-cyclopentyl-N^6-(3′-fluoro-biphenyl-4-ylmethyl)-9H-purine-2,6-diamine]	422 nM	1.12	4.20	7.04	9.85	0.93	1.27	3.10	2.95	>5.00	>5.00	418 nM	77 nM	199 nM	492 nM	288 nM	146 to 148 °C		
NC1CCC(Nc2nc(NCc3ccc(-c4ccoc4)cc3)c3ncn(C4CCCC4)c3n2)CC1 (centres unmarked) [BP13, N^2-(4-amino-cyclohexyl)-9-cyclopentyl-N^6-(4-furan-3-yl-benzyl)-9H-purine-2,6-diamine]	202 nM	0.95	1.71	5.65	7.81	0.99	1.37	1.72	2.28	>5.00	>5.00	518 nM	76 nM	339 nM	613 nM	602 nM	154 to 156 °C		
NC1CCC(Nc2nc(NCc3ccc(-c4ccco4)nc3)c3ncn(C4CCCC4)c3n2)CC1 (centres unmarked) [BP14, N^2-(4-amino-cyclohexyl)-9-cyclopentyl-N^6-(6-furan-2-yl-pyridin-3-ylmethyl)-9H-purine-2,6-diamine]	50 nM	3.60	6.55	9.00	9.50	1.99	2.86	>5.00	>5.00	>5.00	>5.00	58 nM	7 nM	373 nM	513 nM	410 nM		50 nM	0.99
